The source of these data is patent US20230250096A1, “SUBSTITUTED PHENYL-1H-PYRROLO[2,3-c] PYRIDINE DERIVATIVES” (Janssen Pharmaceutica NV, priority 2021, published 2023).

Broadly, the IC50 is the point on the concentration scale where inhibition reaches its midpoint.

For this test, the target named is T1, menin/MLL (terbium chelate-labeled menin, FITC-MBM1 peptide) (Homo sapiens, UniProt O00255, T541A).
T1 construct: Menin (a.a 1-610-6xhis tag, 2.3 mg/mL in 20 mM Hepes)
T1 sequence (O00255 with tags, fused parts or gaps T541A): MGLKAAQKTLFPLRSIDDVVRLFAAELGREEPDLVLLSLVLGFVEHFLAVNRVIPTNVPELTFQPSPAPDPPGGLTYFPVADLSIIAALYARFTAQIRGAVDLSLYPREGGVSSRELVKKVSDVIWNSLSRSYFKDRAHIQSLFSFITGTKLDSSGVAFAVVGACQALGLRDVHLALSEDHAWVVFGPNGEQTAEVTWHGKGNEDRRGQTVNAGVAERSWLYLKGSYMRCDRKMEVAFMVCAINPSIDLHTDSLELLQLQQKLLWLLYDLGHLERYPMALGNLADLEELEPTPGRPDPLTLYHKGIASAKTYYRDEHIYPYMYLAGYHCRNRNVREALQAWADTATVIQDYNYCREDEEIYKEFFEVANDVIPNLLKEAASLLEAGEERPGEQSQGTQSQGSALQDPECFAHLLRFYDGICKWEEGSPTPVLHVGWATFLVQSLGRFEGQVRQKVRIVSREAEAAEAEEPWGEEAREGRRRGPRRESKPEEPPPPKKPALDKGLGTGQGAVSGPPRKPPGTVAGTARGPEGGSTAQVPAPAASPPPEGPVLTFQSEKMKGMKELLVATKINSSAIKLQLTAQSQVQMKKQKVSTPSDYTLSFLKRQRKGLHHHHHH
The test is described as follows: Menin/MLL homogenous time-resolved fluorescence (HTRF) assay. The format is binding. The settings on record: 30 min incubation. In a few lines:
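Terbium-labeled menin (a.a. 1-610, His-tagged; […]) pre-incubated 30 min with compound, then 75 nM FITC-MBM1 peptide added for 15 min at ambient temperature in Tris pH 7.5 buffer, 0.5% DMSO. HTRF 520/490 nm ratio read; IC50 from 11-point four-fold titrations, typically from 10 μM.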
(In general: TR-FRET usually uses a lanthanide donor and a delayed reading to cut background.)
Consider `Cc1cncc2c1c(CC1CCN(CC3CCN(C(=O)C(C)(C)O)CC3)C1)cn2-c1ccc(F)cc1C(=O)N(C)C(C)C` (single isomer, unassigned) [Compound 125], for which half-maximal inhibition (IC50) was put at 0.027 nM.

The molecule `Cc1cncc2c1c(C[C@@H]1CCN(CC3CCN(C(N)=O)CC3)C1)cn2-c1ccc(F)cc1C(=O)N(C)C(C)C` [Compound 207] gave an IC50 of 0.016 nM.

As for `Cc1cncc2c1c(C[C@@H]1CCN(CC3CCC(O)CC3)C1)cn2-c1ccc(F)cc1C(=O)N(C)C(C)C` (stereo partly shown) [Compound 205], half-maximal inhibition (IC50) was put at 0.106 nM.

The molecule `Cc1cncc2c1c(C[C@@H]1CCN(CC3CCNC(=O)CC3)C1)cn2-c1ccc(F)cc1C(=O)N(C)C(C)C` (mixture of isomers) [Compound 169] gave an IC50 of 0.061 nM.

Turning to `CCC([C@H]1C[C@@H](N2CCN(C(C)=O)CC2)C1)N1CC[C@@H](Cc2cn(-c3ccc(F)cc3C(=O)N(C)C(C)C)c3cncc(C)c23)C1` (mixture of isomers) [Compound 24], the IC50 worked out at 0.057 nM.

Regarding `Cc1cncc2c1c(C[C@@H]1CCN(CC3CCNC(=O)CC3)C1)cn2-c1ccc(F)cc1C(=O)N1CCC[C@H]1C` (single isomer, unassigned) [Compound 353a], the IC50 was 0.094 nM.

Molecule `Cc1cncc2c1c(C[C@@H]1CCN([C@H](C)C3CCOCC3)C1)cn2-c1ccc(F)cc1[S@](=N)(=O)C(C)C` (single isomer, unassigned) [Compound 180a] came in with an IC50 of 0.143 nM.

On to `Cc1cncc2c1c(CC1CCN(CC3CCC(=O)N(C)CC3)C1)cn2-c1ccc(F)cc1C(=O)N(C)C(C)C` (single isomer, unassigned) [Compound 184a], for which half-maximal inhibition (IC50) required 0.041 nM.

Molecule `CN=S(=O)(c1cc(F)ccc1-n1cc(CC2CCN(CC3CCOCC3)C2)c2c(C)cncc21)C(C)C` (stereo not shown) [Compound 77] gave an IC50 of 0.191 nM.

Regarding `Cc1cncc2c1c(CC1CCN(CC3CCN(C(=O)N4CCOCC4)CC3)CC1)cn2-c1ccc(F)cc1C(=O)N(C)C(C)C` [Compound 204], 0.091 nM corresponded to half-maximal inhibition (IC50).

`CC(=O)N1C[C@@H]2CN([C@H]3C[C@@H](C(C(C)C)N4CC[C@H](Cc5cn(-c6ccc(F)cc6C(=O)N(C)C(C)C)c6cncc(C)c56)C4)C3)C[C@H]2C1` (mixture of isomers) [Compound 21] came in with an IC50 of 0.052 nM.

`CC(=O)N1CCC(CN2CC[C@@H](Cc3cn(-c4ccc(F)cc4C(=O)N4CCC5CC54)c4cncc(C)c34)C2)CC1` (single isomer, unassigned) [Compound 311b] showed an IC50 of 0.077 nM.

For `Cc1cncc2c1c(CC1CN(C[C@H]3CCOC3)C1)cn2-c1ccc(F)cc1C(=O)N(C)C(C)C` (single isomer, unassigned) [Compound 191a], it took 0.056 nM to reach half-maximal inhibition (IC50).

`CN=S(=O)(c1cc(F)ccc1-n1cc(CC2CCN(CC3CCOCC3)C2)c2c(C)cncc21)C(C)C` (single isomer, unassigned) [Compound 77d] registered an IC50 of 0.208 nM.

Consider `Cc1cncc2c1c(C[C@@H]1CCN([C@@H](CO)C3CCCOC3)C1)cn2-c1ccc(F)cc1C(=O)N(C)C(C)C` (single isomer, unassigned) [Compound 198a], for which the IC50 amounted to 0.034 nM.

The molecule `Cc1cncc2c1c(CC1CN(CC3CCOCC3)C1)cn2-c1ccc(F)cc1C(=O)N1CCCC1CO` (stereo not shown) [Compound 268] displayed an IC50 of 0.149 nM.

For `CC(=O)N1CCC([C@H](CO)N2CC[C@@H](Cc3cn(-c4ccc(F)cc4C(=O)N(C)C(C)C)c4cncc(C)c34)C2)CC1` (single isomer, unassigned) [Compound 206a], the concentration for half-maximal inhibition (IC50) was 0.045 nM.

The molecule `CC(=O)N1CCC(C)(CN2CC(Cc3cn(-c4ccc(F)cc4C(=O)N(C)C(C)C)c4cncc(C)c34)C2)CC1` [Compound 84] registered an IC50 of 0.075 nM.

Regarding `CC(=O)N1CCC(CN2CCC(Cc3cn(-c4ccc(F)cc4C(=O)N(C)C(C)C)c4cncc(C)c34)C2C)CC1` (stereo not shown) [Compound 228], 0.061 nM corresponded to half-maximal inhibition (IC50).

In turn, `CC(=O)N1CCC(C(C)N2CCC(Cc3cn(-c4ccc(F)cc4C(=O)N(C)C(C)C)c4cncc(C)c34)C2)CC1` (single isomer, unassigned) [Compound 116a] returned an IC50 of 0.075 nM.

Consider `CC(=O)N1CCC(CN2CC[C@@H](Cc3cn(-c4ccc(F)cc4C(=O)N4CC5CC4CO5)c4cncc(C)c34)C2)CC1` (stereo partly shown) [Compound 312], for which the IC50 came out at 0.058 nM.

`CC(=O)N1CCN(CCCC(C(C)C)N2CC[C@H](Cc3cn(-c4ccc(F)cc4C(=O)N(C)C(C)C)c4cncc(C)c34)C2)CC1` (mixture of isomers) [Compound 9] returned an IC50 of 0.138 nM.

In turn, `CC(=O)N1CCC(CN2CC[C@@H](Cc3cn(-c4ccc(F)cc4C(=O)N4[C@@H](C)CC[C@@H]4C)c4cncc(C)c34)C2)CC1` [Compound 316] yielded an IC50 of 0.055 nM.

In turn, `Cc1cncc2c1c(CC1CCN(CC3CCN(C(=O)[C@H](C)O)CC3)C1)cn2-c1ccc(F)cc1C(=O)N(C)C(C)C` (single isomer, unassigned) [Compound 86] returned an IC50 of 0.042 nM.

In turn, `Cc1cncc2c1c(CC1CN(CC3CCOCC3)C1)cn2-c1ccc(F)cc1C(=O)N1CC2CC1CO2` (stereo not shown) [Compound 264] showed an IC50 of 0.034 nM.

Turning to `Cc1cncc2c1c(C[C@@H]1CCN(CC3CCC(O)CC3)C1)cn2-c1ccc(F)cc1C(=O)N(C)C(C)C` (single isomer, unassigned) [Compound 205a], 0.049 nM corresponded to half-maximal inhibition (IC50).

`Cc1cncc2c1c(C[C@@H]1CCN([C@H](CO)C3CCCOC3)C1)cn2-c1ccc(F)cc1C(=O)N(C)C(C)C` (single isomer, unassigned) [Compound 198b] gave an IC50 of 0.085 nM.

On to `Cc1cncc2c1c(CC1CN(CC3CCOCC3)C1)cn2-c1ccc(F)cc1C(=O)N1CCC[C@H]1C` [Compound 279], for which the IC50 was found to be 0.025 nM.

`CC(=O)N1CCC(CN2CC[C@@H](Cc3cn(-c4ccc(F)cc4C(=O)N4CCC[C@H]4C)c4cncc(C)c34)C2)CC1` [Compound 315] gave an IC50 of 0.071 nM.

`CN=S(=O)(c1cc(F)ccc1-n1cc(CC2CCN(CC3CCN(C(C)=O)CC3)C2)c2c(C)cncc21)C(C)C` (stereo not shown) [Compound 128] returned an IC50 of 0.078 nM.

For the molecule `CC(=O)NC1CCC(N2CC[C@H](Cc3cn(-c4ccc(F)cc4C(=O)N(C)C(C)C)c4cncc(C)c34)C2)CC1` (stereo partly shown) [Compound 211], the IC50 came out at 0.032 nM.

As to `CC(=O)N1CCC(CN2CC[C@@H](Cc3cn(-c4ccc(F)cc4C(=O)N4CCC5CC54)c4cncc(C)c34)C2)CC1` (stereo partly shown) [Compound 311], half-maximal inhibition (IC50) was put at 0.031 nM.

`Cc1cncc2c1c(CC1CCN(CC3CCN(C(=O)[C@@H](C)O)CC3)C1)cn2-c1ccc(F)cc1C(=O)N(C)C(C)C` (single isomer, unassigned) [Compound 85] registered an IC50 of 0.113 nM.

`COCCN(C)CCC[C@H](C(C)C)N1CC[C@H](Cc2cn(-c3ccc(F)cc3C(=O)N(C)C(C)C)c3cncc(Cl)c23)C1` (single isomer, unassigned) [Compound 4a] registered an IC50 of 0.301 nM.
